Columns and labels:
[1] = test system: blackgrass; assay: Test A preemergence; format: in vivo, Alopecurus myosuroides
Procedure, shortened: (§1)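 Weeds and crops in loam–sand blend were sprayed preemergence onto soil or postemergence at 2–10 cm (one- to two-leaf stage). Test chemicals were in a non-phytotoxic solvent with surfactant. After 10 days in the greenhouse, injury was rated visually against untreated controls on a 0 (no effect) to 100 (complete control) scale.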

[2] = test system: ragweed; assay: Test A preemergence; format: in vivo, Ambrosia artemisiifolia
Procedure, shortened: as §1

[3] = test system: ryegrass, Italian; assay: Test A preemergence; format: in vivo, Lolium multiflorum
Procedure, shortened: as §1

[4] = test system: horseweed; assay: Test A postemergence; format: in vivo, Erigeron canadensis; details: postemergence, 10 days; for Horseweed plant response rating: 125 g ai/ha, 0 to 100 scale, 0 no effect, 100 complete control; for Plant response rating, Horseweed: 500 g ai/ha, visual injury, 0 to 100 scale (0 no effect, 100 complete control)
Procedure, shortened: as §1

[5] = test system: goosegrass; assay: Test A preemergence; format: in vivo, Eleusine indica
Procedure, shortened: as §1

[6] = test system: foxtail, giant; assay: Test A preemergence; format: in vivo, Setaria faberi
Procedure, shortened: as §1

[7] = test system: wheat; assay: Test A preemergence; format: in vivo, Triticum aestivum
Procedure, shortened: as §1

[8] = test system: ryegrass, Italian; assay: Test A postemergence; format: in vivo, Lolium multiflorum; details: postemergence, 10 days; for Ryegrass, Italian plant response rating: 125 g ai/ha, 0 to 100 scale, 0 no effect, 100 complete control; for Plant response rating, Ryegrass, Italian: 500 g ai/ha, visual injury, 0 to 100 scale (0 no effect, 100 complete control)
Procedure, shortened: as §1

[9] = test system: pigweed, palmer; assay: Test A postemergence; format: in vivo, Amaranthus palmeri; details: postemergence, 10 days; for Pigweed, Palmer plant response rating: 125 g ai/ha, 0 to 100 scale, 0 no effect, 100 complete control; for Plant response rating, Pigweed, Palmer: 500 g ai/ha, visual injury, 0 to 100 scale (0 no effect, 100 complete control)
Procedure, shortened: as §1

[10] = test system: oat, wild; assay: Test A preemergence; format: in vivo, Avena fatua
Procedure, shortened: as §1

[11] = test system: ragweed; assay: Test A postemergence; format: in vivo, Ambrosia artemisiifolia; details: postemergence, 10 days; for Ragweed plant response rating: 125 g ai/ha, 0 to 100 scale, 0 no effect, 100 complete control; for Plant response rating, Ragweed: 500 g ai/ha, visual injury, 0 to 100 scale (0 no effect, 100 complete control)
Procedure, shortened: as §1

[12] = test system: goosegrass; assay: Test A postemergence; format: in vivo, Eleusine indica; details: postemergence, 10 days; for Goosegrass plant response rating: 125 g ai/ha, 0 to 100 scale, 0 no effect, 100 complete control; for Plant response rating, Goosegrass: 500 g ai/ha, visual injury, 0 to 100 scale (0 no effect, 100 complete control)
Procedure, shortened: as §1

[13] = test system: pigweed, palmer; assay: Test A preemergence; format: in vivo, Amaranthus palmeri
Procedure, shortened: as §1

[14] = test system: soybean; assay: Test A preemergence; format: in vivo, Glycine max
Procedure, shortened: as §1

[15] = test system: wheat; assay: Test A postemergence; format: in vivo, Triticum aestivum; details: postemergence, 10 days; for Wheat plant response rating: 125 g ai/ha, 0 to 100 scale, 0 no effect, 100 complete control; for Plant response rating, Wheat: 500 g ai/ha, visual injury, 0 to 100 scale (0 no effect, 100 complete control)
Procedure, shortened: as §1

[16] = test system: foxtail, giant; assay: Test A postemergence; format: in vivo, Setaria faberi; details: postemergence, 10 days; for Foxtail, Giant plant response rating: 125 g ai/ha, 0 to 100 scale, 0 no effect, 100 complete control; for Plant response rating, Foxtail, Giant: 500 g ai/ha, visual injury, 0 to 100 scale (0 no effect, 100 complete control)
Procedure, shortened: as §1

[17] = test system: corn; assay: Test A postemergence; format: in vivo, Zea mays; details: postemergence, 10 days; for Corn plant response rating: 125 g ai/ha, 0 to 100 scale, 0 no effect, 100 complete control; for Plant response rating, Corn: 500 g ai/ha, visual injury, 0 to 100 scale (0 no effect, 100 complete control)
Procedure, shortened: as §1

[18] = test system: ducksalad; assay: Test B flooded paddy test; format: in vivo, Heteranthera limosa; details: 250 g ai/ha, Flood, 13 days, 0 to 100 scale (0 no effect, 100 complete control)
Procedure, shortened: (§2)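 Application into standing water (3 cm above soil) at the two-leaf stage; flood depth held constant. Evaluation: day 13, visual comparison with controls, 0 = no injury, 100 = complete control.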

[19] = test system: barnyardgrass; assay: Test B flooded paddy test; format: in vivo, Echinochloa crus-galli; details: 250 g ai/ha, Flood, 13 days, 0 to 100 scale (0 no effect, 100 complete control)
Procedure, shortened: as §2

[20] = test system: oat, wild; assay: Test A postemergence; format: in vivo, Avena fatua; details: postemergence, 10 days; for Oat, Wild plant response rating: 125 g ai/ha, 0 to 100 scale, 0 no effect, 100 complete control; for Plant response rating, Oat, Wild: 500 g ai/ha, visual injury, 0 to 100 scale (0 no effect, 100 complete control)
Procedure, shortened: as §1

[21] = test system: corn; assay: Test A preemergence; format: in vivo, Zea mays
Procedure, shortened: as §1

[22] = test system: blackgrass; assay: Test A postemergence; format: in vivo, Alopecurus myosuroides; details: postemergence, 10 days; for Blackgrass plant response rating: 125 g ai/ha, 0 to 100 scale, 0 no effect, 100 complete control; for Plant response rating, Blackgrass: 500 g ai/ha, visual injury, 0 to 100 scale (0 no effect, 100 complete control)
Procedure, shortened: as §1

[23] = test system: kochia; assay: Test A postemergence; format: in vivo, Bassia scoparia; details: postemergence, 10 days; for Kochia plant response rating: 125 g ai/ha, 0 to 100 scale, 0 no effect, 100 complete control; for Plant response rating, Kochia: 500 g ai/ha, visual injury, 0 to 100 scale (0 no effect, 100 complete control)
Procedure, shortened: as §1

[24] = test system: sedge, umbrella; assay: Test B flooded paddy test; format: in vivo, Cyperus difformis; details: 250 g ai/ha, Flood, 13 days, 0 to 100 scale (0 no effect, 100 complete control)
Procedure, shortened: as §2

[25] = test system: soybean; assay: Test A postemergence; format: in vivo, Glycine max; details: postemergence, 10 days; for Soybean plant response rating: 125 g ai/ha, 0 to 100 scale, 0 no effect, 100 complete control; for Plant response rating, Soybean: 500 g ai/ha, visual injury, 0 to 100 scale (0 no effect, 100 complete control)
Procedure, shortened: as §1

[26] = test system: rice; assay: Test B flooded paddy test; format: in vivo, Oryza sativa; details: 250 g ai/ha, Flood, 13 days, 0 to 100 scale (0 no effect, 100 complete control)
Procedure, shortened: as §2

[27] = test system: kochia; assay: Test A preemergence; format: in vivo, Bassia scoparia
Procedure, shortened: as §1

[28] = 125 g ai/ha, visual injury after 10 days, 0 to 100 scale, 0 is no effect, 100 is complete control
[29] = 500 g ai/ha, 0 to 100 scale (0 no effect, 100 complete control), 10 days

COc1ccc(-n2cnc(C)n2)cc1C(=O)N1C[C@H](C)Oc2c(Cl)cccc21 [Compound 89]
Plant response rating, Blackgrass [1, 28]: 70
Plant response rating, Blackgrass [1, 29]: 90
Plant response rating, Ragweed [2, 28]: 40
Plant response rating, Ragweed [2, 29]: 90
Plant response rating, Ryegrass, Italian [3, 28]: 90
Plant response rating, Ryegrass, Italian [3, 29]: 100
Horseweed plant response rating [4]: 20
Plant response rating, Horseweed [4]: 40
Plant response rating, Goosegrass [5, 28]: 100
Plant response rating, Goosegrass [5, 29]: 100
Plant response rating, Foxtail, Giant [6, 28]: 100
Plant response rating, Foxtail, Giant [6, 29]: 100
Plant response rating, Wheat [7, 28]: 20
Plant response rating, Wheat [7, 29]: 60
Ryegrass, Italian plant response rating [8]: 100
Plant response rating, Ryegrass, Italian [8]: 100
Pigweed, Palmer plant response rating [9]: 70
Plant response rating, Pigweed, Palmer [9]: 100
Plant response rating, Oat, Wild [10, 28]: 70
Plant response rating, Oat, Wild [10, 29]: 90
Ragweed plant response rating [11]: 60
Plant response rating, Ragweed [11]: 80
Goosegrass plant response rating [12]: 90
Plant response rating, Goosegrass [12]: 100
Plant response rating, Pigweed, Palmer [13, 28]: 90
Plant response rating, Pigweed, Palmer [13, 29]: 100
Plant response rating, Soybean [14, 28]: 100
Plant response rating, Soybean [14, 29]: 100
Wheat plant response rating [15]: 50
Plant response rating, Wheat [15]: 50
Foxtail, Giant plant response rating [16]: 90
Plant response rating, Foxtail, Giant [16]: 100
Corn plant response rating [17]: 70
Plant response rating, Corn [17]: 70
Plant response rating, Ducksalad [18]: 100
Plant response rating, Barnyardgrass [19]: 60
Oat, Wild plant response rating [20]: 80
Plant response rating, Oat, Wild [20]: 90
Plant response rating, Corn [21, 28]: 20
Plant response rating, Corn [21, 29]: 60
Blackgrass plant response rating [22]: 70
Plant response rating, Blackgrass [22]: 80
Kochia plant response rating [23]: 70
Plant response rating, Kochia [23]: 90
Plant response rating, Sedge, Umbrella [24]: 100
Soybean plant response rating [25]: 100
Plant response rating, Soybean [25]: 100
Plant response rating, Rice [26]: 15
Plant response rating, Kochia [27, 28]: 70
Plant response rating, Kochia [27, 29]: 100

C[C@H]1CN(C(=O)c2cccc(-n3cnc(Br)n3)c2)c2cccc(Cl)c2O1 [Compound 85]
Plant response rating, Blackgrass [1, 28]: 0
Plant response rating, Blackgrass [1, 29]: 30
Plant response rating, Ragweed [2, 28]: 0
Plant response rating, Ragweed [2, 29]: 0
Plant response rating, Ryegrass, Italian [3, 28]: 90
Plant response rating, Ryegrass, Italian [3, 29]: 90
Horseweed plant response rating [4]: 20
Plant response rating, Horseweed [4]: 50
Plant response rating, Goosegrass [5, 28]: 80
Plant response rating, Goosegrass [5, 29]: 100
Plant response rating, Foxtail, Giant [6, 28]: 30
Plant response rating, Foxtail, Giant [6, 29]: 90
Plant response rating, Wheat [7, 28]: 0
Plant response rating, Wheat [7, 29]: 0
Ryegrass, Italian plant response rating [8]: 10
Plant response rating, Ryegrass, Italian [8]: 70
Pigweed, Palmer plant response rating [9]: 70
Plant response rating, Pigweed, Palmer [9]: 80
Plant response rating, Oat, Wild [10, 28]: 0
Plant response rating, Oat, Wild [10, 29]: 10
Ragweed plant response rating [11]: 0
Plant response rating, Ragweed [11]: 20
Goosegrass plant response rating [12]: 0
Plant response rating, Goosegrass [12]: 30
Plant response rating, Pigweed, Palmer [13, 28]: 70
Plant response rating, Pigweed, Palmer [13, 29]: 60
Plant response rating, Soybean [14, 28]: 0
Plant response rating, Soybean [14, 29]: 0
Wheat plant response rating [15]: 0
Plant response rating, Wheat [15]: 10
Foxtail, Giant plant response rating [16]: 20
Plant response rating, Foxtail, Giant [16]: 40
Corn plant response rating [17]: 10
Plant response rating, Corn [17]: 10
Plant response rating, Ducksalad [18]: 0
Plant response rating, Barnyardgrass [19]: 0
Oat, Wild plant response rating [20]: 20
Plant response rating, Oat, Wild [20]: 30
Plant response rating, Corn [21, 28]: 0
Plant response rating, Corn [21, 29]: 0
Blackgrass plant response rating [22]: 30
Plant response rating, Blackgrass [22]: 50
Kochia plant response rating [23]: 60
Plant response rating, Kochia [23]: 90
Plant response rating, Sedge, Umbrella [24]: 0
Soybean plant response rating [25]: 100
Plant response rating, Soybean [25]: 100
Plant response rating, Rice [26]: 0
Plant response rating, Kochia [27, 28]: 20
Plant response rating, Kochia [27, 29]: 80
